Assay results taken from US20050004186A1, “MEK inhibiting compounds” (Pfizer Inc, priority 2002, published 2005).

Tested on: MEK
Assay: Cellular assay for measuring MEK inhibition, C26CPA1 (inhibition of ERK phosphorylation in C26 cells)
Type: cell-based, murine
Settings: for IC50: murine colon 26 (C26) carcinoma cells, one hour at 37 C; for C26CPA1 % Inhibition @ 0.1 μM / C26CPA1 % Inhibition @ 1 μM: C26 cells
Description: Cellular Assay for Measuring MEK Inhibition
MEK inhibitors were evaluated by determining their ability to inhibit phosphorylation of MAP kinase (ERK) in murine colon 26 (C26) carcinoma cells. Since ERK1 and ERK2 represent the only known substrates for MEK1 and MEK2, the measurement of inhibition of ERK phosphorylation in cells provides direct read out of cellular MEK inhibition by the compounds of the invention. Detection of phosphorylation of ERK was carried out either by Western blot or ELISA format. Briefly, the assays involve treatment of exponentially growing C26 cells with varying concentrations of the test compound (or vehicle control) for one hour at 37≡ C. For Western blot assay, cells were rinsed free of compound/vehicle and lysed in a solution containing 70 mM NaCl, 50 mM glycerol phosphate, 10 mM HEPES, […], 1% Triton X-100, 1 mM Na3VO4, 100 μM PMSF, 10 μM leupeptin and 10 μM pepstatin. Supernatants were then subjected to gel electrophoresis and hybridized to a primary antibody recognizing dually phosphorylated ERK1 and ERK2. To evaluate total MAPK levels, blots were subsequently ‘stripped’ and re-probed with a 1:1 mixture of polyclonal antibodies recognizing unphosphorylated ERK1 and ERK2. For pERK ELISA assay, pERK TiterZyme Enzyme immunometric Assay kits were acquired from Assay Designs, Inc (Ann Arbor, Mich.). Briefly, cells were harvested in lysis solution containing 50 mM β-glycerophosphate, 10 mM HEPES, pH7.4, 70 mM NaCl, 2 mM EDTA and 1% SDS and protein lysates were diluted 1:15 with supplied Assay buffer prior to the execution of the assay. The subsequent steps were carried out essentially as recommended by the manufacturer.

Molecule Fc1cc(I)ccc1Nc1c(-c2nnc(NCCN3CCCCC3)o2)ccc(F)c1F [Example 13, {5-[3,4-Difluoro-2-(2-fluoro-4-iodo-phenylamino)-phenyl]-[1,3,4]oxadiazol-2-yl}-(2-piperidin-1-yl-ethyl)-amine] has an IC50 of 382 nM.

In the case of COCC(C)Nc1nnc(-c2ccc(F)c(F)c2Nc2ccc(I)cc2F)o1 (stereo not shown) [Example 55, {5-[3,4-Difluoro-2-(2-fluoro-4-iodo-phenylamino)-phenyl]-[1,3,4]oxadiazol-2-yl}-(2-methoxy-1-methyl-ethyl)-amine], the “C26CPA1 % Inhibition @ 0.1 μM” value is reported as 23.9% and the “C26CPA1 % Inhibition @ 1 μM” value is reported as 25.2%.

With CN1CCCC1CCNc1nnc(-c2ccc(F)c(F)c2Nc2ccc(I)cc2F)o1 (stereo not shown) [Example 62, {5-[3,4-Difluoro-2-(2-fluoro-4-iodo-phenylamino)-phenyl]-[1,3,4]oxadiazol-2-yl}-[2-(1-methyl-pyrrolidin-2-yl)-ethyl]-amine] the “C26CPA1 % Inhibition @ 0.1 μM” value was 53.7% and the “C26CPA1 % Inhibition @ 1 μM” value was 98.5%.

In the case of CCOC(=O)CCNc1nnc(-c2ccc(F)c(F)c2Nc2ccc(I)cc2F)o1 [Example 58, 3-{5-[3,4-Difluoro-2-(2-fluoro-4-iodo-phenylamino)-phenyl]-[1,3,4]oxadiazol-2-ylamino}-propionic Acid Ethyl Ester], the “C26CPA1 % Inhibition @ 0.1 μM” value is reported as 0% and the “C26CPA1 % Inhibition @ 1 μM” value is reported as 17.8%.

C=CCN(CC=C)c1nnc(-c2ccc(F)c(F)c2Nc2ccc(CC)cc2F)o1 [Example 83, Diallyl-{5-[2-(4-ethyl-2-fluoro-phenylamino)-3,4-difluoro-phenyl]-1,3,4-oxadiazol-2-yl}-amine] was tested, and the “C26CPA1 % Inhibition @ 0.1 μM” value was 65.6% and the “C26CPA1 % Inhibition @ 1 μM” value was 77.9%.

In the case of CN(CCc1ccccn1)c1nnc(-c2ccc(F)c(F)c2Nc2ccc(I)cc2F)o1 [Example 44, {5-[3,4-Difluoro-2-(2-fluoro-4-iodo-phenylamino)-phenyl]-[1,3,4]oxadiazol-2-yl}-methyl-(2-pyridin-2-yl-ethyl)-amine], the “C26CPA1 % Inhibition @ 0.1 μM” value is reported as 5.2% and the “C26CPA1 % Inhibition @ 1 μM” value is reported as 19%.

With Fc1cc(I)ccc1Nc1c(-c2nnc(NCCCCN3CCCC3)o2)ccc(F)c1F [Example 63, {5-[3,4-Difluoro-2-(2-fluoro-4-iodo-phenylamino)-phenyl]-[1,3,4]oxadiazol-2-yl}-(4-pyrrolidin-1-yl-butyl)-amine] the IC50 was 23 nM.

CC(Nc1nnc(-c2ccc(F)c(F)c2Nc2ccc(I)cc2F)o1)C(C)(C)C (stereo not shown) [Example 49, {5-[3,4-Difluoro-2-(2-fluoro-4-iodo-phenylamino)-phenyl]-[1,3,4]oxadiazol-2-yl}-(1,2,2-trimethyl-propyl)-amine] was tested, and the “C26CPA1 % Inhibition @ 0.1 μM” value was 0% and the “C26CPA1 % Inhibition @ 1 μM” value was 0%.

For Fc1cc(I)ccc1Nc1c(-c2nnc(NCC3CCCO3)o2)ccc(F)c1F (stereo not shown) [Example 65, {5-[3,4-Difluoro-2-(2-fluoro-4-iodo-phenylamino)-phenyl]-[1,3,4]oxadiazol-2-yl}-(tetrahydro-furan-2-ylmethyl)-amine], the “C26CPA1 % Inhibition @ 0.1 μM” value was 0% and the “C26CPA1 % Inhibition @ 1 μM” value was 12.7%.

With CCc1ccc(Nc2c(-c3nnc(N(C)CCc4ccccn4)o3)ccc(F)c2F)c(F)c1 [Example 127, {5-[2-(4-Ethyl-2-fluoro-phenylamino)-3,4-difluoro-phenyl]-1,3,4-oxadiazol-2-yl}-methyl-(2-pyridin-2-yl-ethyl)-amine] the “C26CPA1 % Inhibition @ 0.1 μM” value was 0% and the “C26CPA1 % Inhibition @ 1 μM” value was 0%.

With Fc1cc(I)ccc1Nc1c(-c2nnc(NCCc3cccs3)o2)ccc(F)c1F [Example 38, {5-[3,4-Difluoro-2-(2-fluoro-4-iodo-phenylamino)-phenyl]-[1,3,4]oxadiazol-2-yl}-(2-thiophen-2-yl-ethyl)-amine] the “C26CPA1 % Inhibition @ 0.1 μM” value was 0% and the “C26CPA1 % Inhibition @ 1 μM” value was 65.1%.

CCc1ccc(Nc2c(-c3nnc(N4CCN(C)CC4)o3)ccc(F)c2F)c(F)c1 [Example 112, {2,3-Difluoro-6-[5-(4-methyl-piperazin-1-yl)-1,3,4-oxadiazol-2-yl]-phenyl}-(4-ethyl-2-fluoro-phenyl)-amine] was tested, and the “C26CPA1 % Inhibition @ 0.1 μM” value was 62.6% and the “C26CPA1 % Inhibition @ 1 μM” value was 84%.

COc1ccc(CCN(C)c2nnc(-c3ccc(F)c(F)c3Nc3ccc(I)cc3F)o2)cc1OC [Example 42, {5-[3,4-Difluoro-2-(2-fluoro-4-iodo-phenylamino)-phenyl]-[1,3,4]oxadiazol-2-yl}-[2-(3,4-dimethoxy-phenyl)-ethyl]-methyl-amine] was tested, and the “C26CPA1 % Inhibition @ 0.1 μM” value was 8.3% and the “C26CPA1 % Inhibition @ 1 μM” value was 10%.

For Fc1cc(I)ccc1Nc1c(-c2nnc(NC3CC4CCC3C4)o2)ccc(F)c1F (stereo not shown) [Example 51, Bicyclo[2,2,1]hept-2-yl-{5-[3,4-difluoro-2-(2-fluoro-4-iodo-phenylamino)-phenyl]-[1,3,4]oxadiazol-2-yl}-amine], the “C26CPA1 % Inhibition @ 0.1 μM” value was 13.1% and the “C26CPA1 % Inhibition @ 1 μM” value was 96%.

With Fc1cc(I)ccc1Nc1c(-c2nnc(N3CCCC3CN3CCCC3)o2)ccc(F)c1F (stereo not shown) [Example 54, {2,3-Difluoro-6-[5-(2-pyrrolidin-1-ylmethyl-pyrrolidin-1-yl)-[1,3,4]oxadiazol-2-yl]-phenyl}-(2-fluoro-4-iodo-phenyl)-amine] the “C26CPA1 % Inhibition @ 0.1 μM” value was 21.7% and the “C26CPA1 % Inhibition @ 1 μM” value was 30.8%.

For CCC(C)CNc1nnc(-c2ccc(F)c(F)c2Nc2ccc(I)cc2F)o1 (stereo not shown) [Example 50, {5-[3,4-Difluoro-2-(2-fluoro-4-iodo-phenylamino)-phenyl]-[1,3,4]oxadiazol-2-yl}-(2-methyl-butyl)-amine], the “C26CPA1 % Inhibition @ 0.1 μM” value was 0% and the “C26CPA1 % Inhibition @ 1 μM” value was 15.2%.

For COc1ccc(CCNc2nnc(-c3ccc(F)c(F)c3Nc3ccc(I)cc3F)o2)cc1OC [Example 40, {5-[3,4-Difluoro-2-(2-fluoro-4-iodo-phenylamino)-phenyl]-[1,3,4]oxadiazol-2-yl}-[2-(3,4-dimethoxy-phenyl)-ethyl]-amine], the “C26CPA1 % Inhibition @ 0.1 μM” value was 0% and the “C26CPA1 % Inhibition @ 1 μM” value was 26.2%.

CN(C)CCNc1nnc(-c2ccc(F)c(F)c2Nc2ccc(I)cc2F)o1 [Example 17, N-{5-[3,4-Difluoro-2-(2-fluoro-4-iodo-phenylamino)-phenyl]-[1,3,4]oxadiazol-2-yl}-N′,N′-dimethyl-ethane-1,2-diamine] gave an IC50 of 140 nM.

For CCc1ccc(Nc2c(-c3nnc(NC(C)Cc4ccsc4)o3)ccc(F)c2F)c(F)c1 (stereo not shown) [Example 137, {5-[2-(4-Ethyl-2-fluoro-phenylamino)-3,4-difluoro-phenyl]-1,3,4-oxadiazol-2-yl}-(1-methyl-2-thiophen-3-yl-ethyl)-amine], the “C26CPA1 % Inhibition @ 0.1 μM” value was 72.1% and the “C26CPA1 % Inhibition @ 1 μM” value was 85.3%.

For CCc1ccc(Nc2c(-c3nnc(N(C)CCCN(C)C)o3)ccc(F)c2F)c(F)c1 [Example 93, N^1-{5-[2-(4-Ethyl-2-fluoro-phenylamino)-3,4-difluoro-phenyl]-1,3,4-oxadiazol-2-yl}-N1,N>3,N>3-trimethyl-propane-1.3-diamine], the “C26CPA1 % Inhibition @ 0.1 μM” value was 0% and the “C26CPA1 % Inhibition @ 1 μM” value was 31.9%.

In the case of CCc1ccc(Nc2c(-c3nnc(N(C)CCS(C)(=O)=O)o3)ccc(F)c2F)c(F)c1 [Example 121, {5-[2-(4-Ethyl-2-fluoro-phenylamino)-3,4-difluoro-phenyl]-1,3,4-oxadiazol-2-yl}-(2-methanesulfonyl-ethyl)-methyl-amine], the “C26CPA1 % Inhibition @ 0.1 μM” value is reported as 0% and the “C26CPA1 % Inhibition @ 1 μM” value is reported as 26.9%.

CCCNc1nnc(-c2ccc(F)c(F)c2Nc2ccc(I)cc2F)o1 [Example 45, {5-[3,4-Difluoro-2-(2-fluoro-4-iodo-phenylamino)-phenyl]-[1,3,4]oxadiazol-2-yl}-propyl-amine] was tested, and the “C26CPA1 % Inhibition @ 0.1 μM” value was 3.1% and the “C26CPA1 % Inhibition @ 1 μM” value was 31.4%.

For CN(CCc1ccncc1)c1nnc(-c2ccc(F)c(F)c2Nc2ccc(I)cc2F)o1 [Example 43, {5-[3,4-Difluoro-2-(2-fluoro-4-iodo-phenylamino)-phenyl]-[1,3,4]oxadiazol-2-yl}-methyl-(2-pyridin-4-yl-ethyl)-amine], the “C26CPA1 % Inhibition @ 0.1 μM” value was 26.6% and the “C26CPA1 % Inhibition @ 1 μM” value was 31.7%.

Cn1cnc(CCNc2nnc(-c3ccc(F)c(F)c3Nc3ccc(I)cc3F)o2)c1 [Example 53, {5-[3,4-Difluoro-2-(2-fluoro-4-iodo-phenylamino)-phenyl]-[1,3,4]oxadiazol-2-yl}-[2-(1-methyl-1H-imidazol-4-yl)-ethyl]-amine] was tested, and the IC50 was 230 nM.

NCCCNc1nnc(-c2ccc(F)c(F)c2Nc2ccc(I)cc2F)o1 [Example 15, N′1′-{5-[3,4-Difluoro-2-(2-fluoro-4-iodo-phenylamino)-phenyl]-[1,3,4]oxadiazol-2-yl}-propane-1,3-diamine] gave an IC50 of 76 nM.

With COc1cccc(CCNc2nnc(-c3ccc(F)c(F)c3Nc3ccc(I)cc3F)o2)c1 [Example 39, {5-[3,4-Difluoro-2-(2-fluoro-4-iodo-phenylamino)-phenyl]-[1,3,4]oxadiazol-2-yl}-[2-(3-methoxy-phenyl)-ethyl]-amine] the “C26CPA1 % Inhibition @ 0.1 μM” value was 0% and the “C26CPA1 % Inhibition @ 1 μM” value was 40.2%.

With COCCN(CCOC)c1nnc(-c2ccc(F)c(F)c2Nc2ccc(I)cc2F)o1 [Example 66, {5-[3,4-Difluoro-2-(2-fluoro-4-iodo-phenylamino)-phenyl]-[1,3,4]oxadiazol-2-yl}-bis-(2-methoxy-ethyl)-amine] the “C26CPA1 % Inhibition @ 0.1 μM” value was 0% and the “C26CPA1 % Inhibition @ 1 μM” value was 12.5%.
